Results on five compounds are retold here after ChEMBL document CHEMBL3797071, “Repurposing strategies for tropical disease drug discovery” (Bioorg Med Chem Lett, 2016).

In assay [1] the test system is Brugia pahangi. Kind of assay: Antifilarial activity against Brugia pahangi infected in gerbils assessed as reduction in worm burden at 5 mg/kg, bid in weekdays for 28 days. It counts as functional, organism-based. Also on record: scale not given: the % may be the effect or the level left.
Assay [2] can be described thus: Selectivity ratio of IC50 for Onchocerca ochengi to IC50 for microfilariae of Loa loa. It counts as functional.
The test system of assay [3] is Brugia pahangi. Kind of assay: Antifilarial activity against Brugia pahangi infected in gerbils assessed as reduction in worm burden at 5 mg/kg, sid in weekends for 28 days. It counts as functional, organism-based. Also on record: scale not given: the % may be the effect or the level left.
Assay [4] in a line: Inhibition of Trypanosoma brucei LeuRS assessed as formation of stable tRNA(Leu)-compound adduct in editing site of enzyme.
The test system of assay [5] is Leishmania chagasi. Kind of assay: Antiparasitic activity against amastigote stage of Leishmania chagasi MHOM/BR/1972/LD infected in golden hamster assessed as reduction in parasite load at 20 mg/kg, ip administered for 15 days measured after 4 weeks by limiting dillution method. Also on record: scale not given: the % may be the effect or the level left. It counts as functional.

Assay [6] deals with Leishmania chagasi. Kind of assay: Antiparasitic activity against amastigote stage of Leishmania chagasi MHOM/BR/1972/LD infected in golden hamster assessed as golden hamster survival rate at 20 mg/kg, ip after 18 weeks by limiting dillution method. In kind it is functional.
The next assay relates to Leishmania braziliensis. In words: Antiparasitic activity against promastigote stage of Leishmania braziliensis MHOM/BR/2001/BA788 infected in BALB/c mouse assessed as reduction in parasite load at 20 mg/kg, ip administered for 15 days measured after 6 weeks by limiting dillution method. More on the design: scale not given: the % may be the effect or the level left. It counts as functional.

In the next assay the test system is Trypanosoma brucei. In words: Antiparasitic activity against Trypanosoma brucei […]. It counts as functional, organism-based.
The next assay deals with L929. Kind of assay: Cytotoxicity against mouse L929 cells. It counts as cell-based.

As usually defined, the IC50 is the concentration needed to halve the response being measured. What is called EC50 is the concentration needed to bring the measured effect to its halfway point.

For the compound AURANOFIN, the Activity in the assay with Brugia pahangi [1] stood at 58%; in the assay on Brugia pahangi [3], 91%. In addition, the Ratio IC50 in [2] is 43.
As for `OB1OCc2cc(F)ccc21` [TAVABOROLE], the IC50 in [4] was 22.1 µM.
For `CC/C(=C(\c1ccccc1)c1ccc(OCCN(C)C)cc1)c1ccccc1` [TAMOXIFEN], the Activity with Leishmania chagasi [5] is recorded as 95%; in the assay with Leishmania chagasi [6] it was 100%; with Leishmania braziliensis, 95%.
On to `CCOC(=O)COc1ccc2c(c1)B(O)OC2`, for which the IC50 in assay [4] was found to be 3.5 µM. In addition, the EC50 in the assay with Trypanosoma brucei was 0.72 µM; with L929 it was above 40 µM.
Taken in the same sequence, the figures for `CC(=O)C(C)(C)Oc1ccc2c(c1)B(O)OC2` were 5 µM, 0.37 µM and above 40 µM.
